This test deals with T1, Aldo-keto reductase family 1 member C3 (Homo sapiens, UniProt P42330).
T1 sequence (P42330 whole entry): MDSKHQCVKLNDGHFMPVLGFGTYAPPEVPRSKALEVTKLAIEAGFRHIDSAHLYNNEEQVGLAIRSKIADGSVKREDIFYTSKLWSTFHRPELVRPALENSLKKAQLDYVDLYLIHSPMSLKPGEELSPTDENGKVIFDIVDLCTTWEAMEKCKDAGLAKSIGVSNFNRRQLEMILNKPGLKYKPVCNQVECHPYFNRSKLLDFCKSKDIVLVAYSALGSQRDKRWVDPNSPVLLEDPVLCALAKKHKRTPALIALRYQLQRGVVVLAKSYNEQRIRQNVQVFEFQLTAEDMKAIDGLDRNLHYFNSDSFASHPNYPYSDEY
The test is described as follows: AKR1C3-Inhibitory Activity Assay: The enzyme used was recombinant human AKR1C3 (Aldo-keto reductase family 1 member C3; GenBank Accession No. NM_003739). This was expressed in E. coli as GST (glutathione S transferase) fusion protein and purified by glutathione Sepharose affinity chromatography. The GST was removed by digestion with thrombin and subsequent size exclusion chromatography (Dufort, I., Rheault, P., Huang, X F., Soucy, P., and Luu-The, V., Endocrinology 140, 568-574 (1999)).For the assay, 50 nl of a 100-fold concentrated solution of the test substance in DMSO were pipetted into a black low-volume 384-well microtiter plate (Greiner Bio-One, Frickenhausen, Germany), 2.5 μl of a solution of AKR1C3 in assay buffer [50 mM potassium phosphate buffer pH 7, 1 mM DTT, 0.0022% (w/v) Pluronic F-127, 0.01% BSA (w/v) and protease inhibitor cocktail (Complete, EDTA-free Protease Inhibitor Cocktail from Roche)] were added and the mixture was incubated for 15 min to allow pre-binding of the substances to the enzyme prior to the enzyme reaction. The enzyme reaction was then started by addition of 2.5 μl of a solution of NADPH (20 μM→final concentration in 5 μl of assay volume is 10 μM) and Coumberone (0.6 μM→final concentration in 5 μl of assay volume is 0.3 μM) in assay buffer, and the resulting mixture was incubated at 22° C. for the reaction time of typically 90 min. […].

As usually defined, the IC50 is the midpoint of a concentration-inhibition curve.

On to `O=C(c1cnn[nH]1)N1CC2CCC(C1)N2S(=O)(=O)c1ccccc1Br`, for which the IC50 was determined as 0.7 nM.
For `O=C(c1cnn[nH]1)N1CC2CCC(C1)N2S(=O)(=O)c1ccccc1Cl` the value was 1.4 nM.

The values above are taken from ChEMBL document CHEMBL5726067, “[8-(phenylsulfonyl)-3,8-diazabicyclo[3.2.1]oct-3-yl](1H-1,2,3-triazol-4-yl)methanones” (2019).
